Converted amounts (≈) assume the structure as drawn. Read-outs that look alike come from different tables or passages of the source.
Columns and labels:
[1] = tested on: Escherichia coli EC14; assay: MIC, standard agar-dilution assay; assay type: cell-based
Method: (§1) Certain of the derivatives are active against some gram-negative bacteria, such as Pasteurella species. The MIC's in Table II were determined by standard agar-dilution assays. The MIC's in Table III were obtained using a conventional broth-dilution microtiter test.

[2] = tested on: Escherichia coli TEM; assay: MIC, standard agar-dilution assay; assay type: cell-based; conditions: agar-dilution; Escherichia coli TEM; read-out: MIC
Method: as §1

[3] = tested on: Klebsiella pneumoniae KAE; assay: MIC, standard agar-dilution assay; assay type: cell-based
Method: as §1

[4] = tested on: Klebsiella pneumoniae X26; assay: MIC, standard agar-dilution assay; assay type: cell-based
Method: as §1

[5] = tested on: Staphylococcus aureus V41; assay: MIC, standard agar-dilution assay; assay type: cell-based; conditions: Staphylococcus aureus, V41
Method: as §1

[6] = tested on: Staphylococcus aureus X1.1; assay: MIC, standard agar-dilution assay; assay type: cell-based; conditions: Staphylococcus aureus, X1.1
Method: as §1

[7] = tested on: Streptococcus Group D X66; assay: MIC, standard agar-dilution assay; assay type: cell-based
Method: as §1

[8] = tested on: Streptococcus pneumoniae Park I; assay: MIC, standard agar-dilution assay; assay type: cell-based; conditions: agar-dilution; Streptococcus pneumoniae Park I; read-out: MIC
Method: as §1

[9] = tested on: Streptococcus pyogenes 9960; assay: MIC, standard agar-dilution assay; assay type: cell-based; conditions: agar-dilution, Streptococcus 9960, read-out: MIC
Method: as §1

[10] = tested on: Streptococcus pyogenes C203; assay: MIC, standard agar-dilution assay; assay type: cell-based; conditions: agar-dilution; Streptococcus pyogenes C203; read-out: MIC
Method: as §1

[11] = tested on: Haemophilus influenzae 76; assay: MIC, standard agar-dilution assay; assay type: cell-based; conditions: agar-dilution; Haemophilus influenzae 76, Ampicillin-resistant strain; read-out: MIC
Method: (§2) The MIC's in Table II were determined by standard agar-dilution assays. The MIC's in Table III were obtained using a conventional broth-dilution microtiter test.

[12] = tested on: Haemophilus influenzae C.L.; assay: MIC, standard agar-dilution assay; assay type: cell-based; conditions: Haemophilus influenzae
Method: as §2

[13] = tested on: Staphylococcus aureus X400; assay: MIC, standard agar-dilution assay; assay type: cell-based; conditions: Staphylococcus aureus, X400
Method: as §2

[14] = tested on: Staphylococcus epidermidis EPI2; assay: MIC, standard agar-dilution assay; assay type: cell-based
Method: as §2

[15] = tested on: Staphylococcus aureus S13E; assay: microbe, parasite or virus in culture; assay type: cell-based
Method: as §2

[16] = tested on: Staphylococcus epidermidis EPI1; assay: microbe, parasite or virus in culture; assay type: cell-based; conditions: Staphylococcus epidermidis, EPI1
Method: as §2

[17] = tested on: Mycoplasma gallisepticum 34159; assay: MIC, conventional broth-dilution microtiter test; assay type: cell-based; conditions: Mycoplasmoides gallisepticum
Method: as §1

[18] = tested on: Mycoplasma gallisepticum 41313; assay: MIC, conventional broth-dilution microtiter test; assay type: cell-based; conditions: Mycoplasmoides gallisepticum
Method: as §1

[19] = tested on: Mycoplasma gallisepticum; assay: MIC, conventional broth-dilution microtiter test; assay type: cell-based; conditions: Mycoplasmoides gallisepticum
Method: as §1

[20] = tested on: Mycoplasma hyorhinis; assay: MIC, conventional broth-dilution microtiter test; assay type: cell-based; conditions: broth-dilution microtiter; Mycoplasma hyorhinis; read-out: MIC
Method: as §1

[21] = tested on: Mycoplasma synoviae; assay: MIC, conventional broth-dilution microtiter test; assay type: cell-based; conditions: Mycoplasmopsis synoviae; broth-dilution microtiter; Mycoplasma synoviae; read-out: MIC
Method: as §1

[22] = tested on: Pasteurella hemolytica 22C; assay: MIC, conventional broth-dilution microtiter test; assay type: cell-based; conditions: broth-dilution microtiter; Pasteurella hemolytica 22C; read-out: MIC
Method: as §1

[23] = tested on: Pasteurella hemolytica 23C; assay: MIC, conventional broth-dilution microtiter test; assay type: cell-based; conditions: broth-dilution microtiter; Pasteurella hemolytica 23C; read-out: MIC
Method: as §1

[24] = tested on: Pasteurella hemolytica 41D; assay: MIC, conventional broth-dilution microtiter test; assay type: cell-based; conditions: broth-dilution microtiter; Pasteurella hemolytica 41D; read-out: MIC
Method: as §1

[25] = tested on: Pasteurella multocida 17E; assay: MIC, conventional broth-dilution microtiter test; assay type: cell-based
Method: as §1

[26] = tested on: Pasteurella multocida 22A; assay: MIC, conventional broth-dilution microtiter test; assay type: cell-based
Method: as §1

[27] = tested on: Pasteurella multocida 40G; assay: MIC, conventional broth-dilution microtiter test; assay type: cell-based
Method: as §1

[28] = tested on: Pasteurella multocida 60A; assay: MIC, conventional broth-dilution microtiter test; assay type: cell-based; conditions: broth-dilution microtiter; Pasteurella multocida 60A, Avian isolate; read-out: MIC
Method: as §1

[29] = tested on: Pasteurella multocida 68C; assay: MIC, conventional broth-dilution microtiter test; assay type: cell-based
Method: as §1

[30] = tested on: Staphylococcus aureus; assay: MIC, conventional broth-dilution microtiter test; assay type: cell-based; conditions: broth-dilution microtiter, read-out: MIC
Method: as §1

[31] = tested on: Streptococcus sp. 80; assay: MIC, conventional broth-dilution microtiter test; assay type: cell-based
Method: as §1

[32] = tested on: Streptococcus pyogenes C203; assay: Protection of mice experimentally infected with S. pyogenes C203; assay type: in vivo; conditions: mg/kg × 2, doses given 1 and 4 hours postinfection
Method: Some of the derivatives of this invention have shown in vivo antimicrobial activity against experimentally-induced infections in laboratory animals. When two doses of test compound were administered to mice experimentally infected with S. pyogenes C203, the activity observed was measured as an ED50 value [effective dose in mg/kg to protect 50% of the test animals: see Warren Wick, et al., J. Bacteriol. 81, 233-235 (1961)].

Row | Structure (SMILES) | MIC [2] [µg/mL] | MIC [5] [µg/mL] | MIC [6] [µg/mL] | MIC [9] [µg/mL] | MIC [10] [µg/mL] | MIC [11] [µg/mL] | MIC [12] [µg/mL] | MIC [13] [µg/mL] | MIC [15] [µg/mL] | MIC [16] [µg/mL] | MIC [20] [µg/mL] | MIC [21] [µg/mL] | MIC [22] [µg/mL] | MIC [23] [µg/mL] | MIC [24] [µg/mL] | MIC [28] [µg/mL] | MIC [30] [µg/mL] | further results
1 | CCC1OC(=O)CC(O)C(C)C(OC2OC(C)C(O)C(N(C)C)C2O)C(CCO)CC(C)C(=O)C=CC(C)=CC1CN1CCCCCCC1 (stereo not drawn) [Compound 58, 20-Dihydro-23-Octahydroazocin-1-yl-23-deoxy-OMT] | 8 (≈ 11.5 µM) | 0.5 (≈ 0.719 µM) | 0.5 (≈ 0.719 µM) | 4 (≈ 5.76 µM) | 0.25 (≈ 0.36 µM) | 4 (≈ 5.76 µM) | 2 (≈ 2.88 µM) | 1 (≈ 1.44 µM) | 0.5 (≈ 0.719 µM) | 0.5 (≈ 0.719 µM) | 25 (≈ 36 µM) | 6.25 (≈ 8.99 µM) | 0.78 (≈ 1.12 µM) | 0.78 (≈ 1.12 µM) | 0.39 (≈ 0.561 µM) | 0.78 (≈ 1.12 µM) | 0.78 (≈ 1.12 µM) | MIC ([1]; Escherichia coli, EC14): 64 µg/mL (≈ 92.1 µM); MIC ([3]; Klebsiella pneumoniae): 64 µg/mL (≈ 92.1 µM); MIC ([4]; agar-dilution, Klebsiella pneumoniae X26, read-out: MIC): 2 µg/mL (≈ 2.88 µM); MIC [7]: 2 µg/mL (≈ 2.88 µM); MIC [8]: 0.25 µg/mL (≈ 0.36 µM); MIC ([14]; agar-dilution, Staphylococcus epidermidis EPI2, read-out: MIC): 0.25 µg/mL (≈ 0.36 µM); MIC ([17]; broth-dilution microtiter, Mycoplasma gallisepticum 34159, Resistant strain, read-out: MIC): > 50 µg/mL; MIC ([18]; broth-dilution microtiter, Mycoplasma gallisepticum 41313, Resistant strain, read-out: MIC): 50 µg/mL (≈ 71.9 µM); MIC ([19]; broth-dilution microtiter, Mycoplasma gallisepticum, read-out: MIC): 0.39 µg/mL (≈ 0.561 µM); MIC ([25]; Pasteurella multocida, 17E): 3.12 µg/mL (≈ 4.49 µM); MIC ([26]; broth-dilution microtiter, Pasteurella multocida 22A, read-out: MIC): 1.56 µg/mL (≈ 2.24 µM); MIC ([27]; broth-dilution microtiter, Pasteurella multocida 40G, read-out: MIC): 0.39 µg/mL (≈ 0.561 µM); MIC ([29]; broth-dilution microtiter, Pasteurella multocida 68C, read-out: MIC): 1.56 µg/mL (≈ 2.24 µM); MIC ([31]; broth-dilution microtiter, Streptococcus sp. 80, read-out: MIC): 1.56 µg/mL (≈ 2.24 µM)
2 | CCC1CC(C)C(=O)C=CC(C)=CC(COc2cccc(OC)c2OC)C(CC)OC(=O)CC(O)C(C)C1OC1OC(C)C(O)C(N(C)C)C1O (stereo not drawn) [Compound 47, 23-O-(2,3-Dimethoxyphenyl)-20-deoxy-20-dihydro-OMT] | 128 (≈ 178 µM) | 0.25 (≈ 0.347 µM) | 0.25 (≈ 0.347 µM) | 0.25 (≈ 0.347 µM) | 0.25 (≈ 0.347 µM) | 16 (≈ 22.2 µM) | 32 (≈ 44.4 µM) | 0.25 (≈ 0.347 µM) | 0.25 (≈ 0.347 µM) | 0.25 (≈ 0.347 µM) | 25 (≈ 34.7 µM) | 6.25 (≈ 8.68 µM) | 25 (≈ 34.7 µM) | 25 (≈ 34.7 µM) | 25 (≈ 34.7 µM) | 25 (≈ 34.7 µM) | 3.12 (≈ 4.33 µM) | MIC ([1]; agar-dilution, Escherichia coli EC14, read-out: MIC): > 128 µg/mL; MIC ([3]; agar-dilution, Klebsiella pneumoniae KAE, read-out: MIC): > 128 µg/mL; MIC ([4]; Klebsiella pneumoniae, X26): 4 µg/mL (≈ 5.56 µM); MIC ([7]; agar-dilution, Streptococcus Group D X66, read-out: MIC): 0.25 µg/mL (≈ 0.347 µM); MIC ([14]; Staphylococcus epidermidis, EPI2): 0.25 µg/mL (≈ 0.347 µM); MIC [17]; 34159: 50 µg/mL (≈ 69.5 µM); MIC [18]; 41313: 50 µg/mL (≈ 69.5 µM); MIC [19]: 1.56 µg/mL (≈ 2.17 µM); MIC ([25]; broth-dilution microtiter, Pasteurella multocida 17E, Bovine isolate, read-out: MIC): 25 µg/mL (≈ 34.7 µM); MIC ([26]; Pasteurella multocida, 22A): 50 µg/mL (≈ 69.5 µM); MIC ([27]; Pasteurella multocida, 40G): 12.5 µg/mL (≈ 17.4 µM); MIC ([29]; Pasteurella multocida, 68C): 12.5 µg/mL (≈ 17.4 µM); MIC ([31]; Streptococcus, SP.80): 1.56 µg/mL (≈ 2.17 µM); ED50 ([32]; C203, mice, oral, read-out: ED50 Oral): > 50 mg/kg; ED50 ([32]; C203, sc, mice, subcutaneous, read-out: ED50 Subcutaneous): > 10 mg/kg

Source: patent US4468511A, “C-20- And C-23-Modified macrolide derivatives” (Eli Lilly and Company, priority 1983, dated 1984)
